Earlier results, collected in US20100247552A1, “PAK MODULATORS” (MASSACHUSETTS INSTITUTE OF TECHNOLOGY, priority 2006, published 2010).

Legend:
PAK4 [1] = target: T1, PAK4 (Homo sapiens, UniProt O96013)
PAK6 [2] = target: T2, PAK6 (Homo sapiens, UniProt Q9NQU5)
PAK5 [3] = target: T3, PAK5 (Homo sapiens, UniProt Q9P286)
PAK6 [4] = target: T2, PAK6; settings: 10 μM compound
PAK4 [5] = target: T1, PAK4; settings: 10 μM compound
PAK5 [6] = target: T3, PAK5; settings: 10 μM compound
[7] = test system: human cancer cell migration; settings: 40 μM; interferes with formation of active Cdc42/Rac1 and PAK complex
[8] = solvents
PAK = settings: probably competitive inhibition of ATP binding; units printed within the value (nM and μM); read-out: IC50 for inhibition of PAK kinase activity

T3 sequence (Q9P286 whole entry): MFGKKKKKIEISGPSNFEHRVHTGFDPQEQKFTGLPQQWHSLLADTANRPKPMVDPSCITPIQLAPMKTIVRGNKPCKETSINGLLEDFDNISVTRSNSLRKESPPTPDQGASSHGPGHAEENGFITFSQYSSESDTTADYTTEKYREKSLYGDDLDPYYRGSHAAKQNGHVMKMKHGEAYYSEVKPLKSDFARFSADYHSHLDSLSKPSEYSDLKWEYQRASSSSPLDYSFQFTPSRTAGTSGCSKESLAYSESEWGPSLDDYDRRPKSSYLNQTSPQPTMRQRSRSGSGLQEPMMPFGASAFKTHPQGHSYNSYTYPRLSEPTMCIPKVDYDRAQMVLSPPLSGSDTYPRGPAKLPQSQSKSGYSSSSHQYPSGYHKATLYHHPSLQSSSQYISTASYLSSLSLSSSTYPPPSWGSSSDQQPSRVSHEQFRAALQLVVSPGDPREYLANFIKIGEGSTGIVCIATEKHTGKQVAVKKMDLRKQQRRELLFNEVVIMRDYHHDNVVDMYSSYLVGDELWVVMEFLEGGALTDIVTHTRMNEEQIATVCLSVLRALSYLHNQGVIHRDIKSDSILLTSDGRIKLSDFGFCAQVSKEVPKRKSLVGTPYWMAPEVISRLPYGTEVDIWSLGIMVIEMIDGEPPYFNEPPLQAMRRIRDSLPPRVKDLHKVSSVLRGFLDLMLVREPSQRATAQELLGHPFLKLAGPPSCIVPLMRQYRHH
T2 sequence (Q9NQU5 whole entry): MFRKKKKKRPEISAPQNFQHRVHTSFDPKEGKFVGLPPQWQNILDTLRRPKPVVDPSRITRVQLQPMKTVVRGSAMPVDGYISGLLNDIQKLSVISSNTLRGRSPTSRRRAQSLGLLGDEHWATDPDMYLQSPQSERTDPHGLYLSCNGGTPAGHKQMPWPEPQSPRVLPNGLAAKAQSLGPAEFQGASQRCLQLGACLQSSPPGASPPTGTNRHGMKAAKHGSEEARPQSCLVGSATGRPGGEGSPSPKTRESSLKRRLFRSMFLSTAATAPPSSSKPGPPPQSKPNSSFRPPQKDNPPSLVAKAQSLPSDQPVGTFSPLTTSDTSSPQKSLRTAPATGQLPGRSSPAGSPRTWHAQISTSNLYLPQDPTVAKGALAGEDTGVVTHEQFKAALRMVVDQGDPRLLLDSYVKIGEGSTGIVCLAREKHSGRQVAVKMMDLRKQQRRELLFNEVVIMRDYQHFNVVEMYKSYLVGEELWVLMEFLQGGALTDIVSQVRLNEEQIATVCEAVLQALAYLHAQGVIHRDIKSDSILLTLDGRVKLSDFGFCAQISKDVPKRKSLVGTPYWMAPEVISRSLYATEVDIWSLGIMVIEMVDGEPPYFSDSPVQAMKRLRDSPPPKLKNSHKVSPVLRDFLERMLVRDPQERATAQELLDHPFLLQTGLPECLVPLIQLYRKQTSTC
T1 sequence (O96013 291-591 limits assumed): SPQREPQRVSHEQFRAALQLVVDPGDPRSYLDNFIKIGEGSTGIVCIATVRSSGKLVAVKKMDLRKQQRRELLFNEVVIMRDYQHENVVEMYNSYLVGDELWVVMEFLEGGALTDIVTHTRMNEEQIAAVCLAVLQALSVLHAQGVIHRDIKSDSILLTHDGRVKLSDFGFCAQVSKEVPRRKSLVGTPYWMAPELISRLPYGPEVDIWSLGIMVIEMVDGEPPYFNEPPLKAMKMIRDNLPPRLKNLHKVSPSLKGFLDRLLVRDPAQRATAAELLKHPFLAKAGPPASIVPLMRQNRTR

| SMILES | Tm Shift PAK4 (PAK4 [1]) [°C] | Tm Shift PAK6 (PAK6 [2]) [°C] | Tm Shift PAK5 (PAK5 [3]) [°C] | % Activity at 10 μM PAK6 (PAK6 [4]) [%] | % Activity at 10 μM PAK4 (PAK4 [5]) [%] | % Activity at 10 μM PAK5 (PAK5 [6]) [%] | Effect on human cancer cell migration [7] | Solubility [8] | IC50 (PAK) [nM] |
| --- | --- | --- | --- | --- | --- | --- | --- | --- | --- |
| CCn1cnc2c(Nc3cccc(Cl)c3)nc(NC3CCCCC3N)nc21 (stereo not drawn) [Cdkl Inhibitor] | 7.0 ± 1.5 | 7.0 ± 0.3 | 7.1 ± 0.3 | 23 | 56 | 12 |  |  |  |
| CN[C@@H]1C[C@H]2O[C@@](C)([C@@H]1OC)n1c3ccccc3c3c4c(c5c6ccccc6n2c5c31)C(=O)NC4 [Staurosporine] |  |  |  | 0 |  | 0 |  |  |  |
| C[C@]12OC(C[C@]1(O)C(=O)O)n1c3ccccc3c3c4c(c5c6ccccc6n2c5c31)CNC4=O [K252a] | 4.5 ± 0.3 | 8.6 ± 1.0 | 5.9 ± 0.3 | 16 | 16 | 22 |  |  |  |
| Cc1cc(O)c2c(c1)C(=O)c1cc(O)cc(O)c1C2=O [Emodin, 1,3,8-Tri-hydroxy-6-methyl-anthra-quinone] |  |  |  |  |  |  | inhibits human cancer cell migration | soluble in DMSO, ethanol, or 1 N dilute aqueous ammonia |  |
| CCN(CC)CCNC(=O)c1c(C)[nH]c(/C=C2\C(=O)Nc3ccc(Cl)cc32)c1C [SU11652] | 6.4 ± 1.2 | 5.3 ± 0.3 | 5.3 ± 0.2 | 75 | 34 | 43 |  |  |  |
| NCC(=O)Nc1ccc(-n2nc(C(F)(F)F)cc2-c2ccc3c(ccc4ccccc43)c2)cc1 [OSU-03012, 2-amino-N-{4-[5-(2-phenanthrenyl)-3-(trifluoromethyl)-1H-pyrazol-1-yl]-phenyl}acetamide] |  |  |  |  |  |  |  | soluble in organic solvents such as DMSO, ethanol, and DMF | 500 to 1000 |
| Nc1nc(Nc2ccc(S(N)(=O)=O)cc2)nn1C(=S)Nc1c(F)cccc1F [Cdk 1/2 Inhibitor III] | 6.5 ± 0.2 | 5.6 ± 0.8 | 5.6 ± 0.3 | 18 | 62 | 7.0 |  |  |  |
